From patent US7148250B2, “Indoles as NAALADase inhibitors” (Guilford Pharmaceuticals Inc., priority 2001, dated 2006)

Tests used:
[1] = tested on: BB/W rats; experiment: Retinal disorders in diabetic BB/W rats (BM thickness, E/P ratio); format: in vivo, rat; settings: for BM THICKNESS ± SD (n = 3) / E/P RATIO (n = 8–10): diabetic BB/W rats
Procedure: Four (4) groups of rats received daily insulin injections to maintain their glucose levels at about 350 mg/dl. Starting at the onset of hyperglycemia, NAALADase inhibitor 2-(3-sulfanylpropyl)-pentanedioic acid was administered daily for 6 months to one group of BB/W rats at a dose of 10 mg/kg and to a second group of BB/W rats at a dose of 30 mg/kg. A third group of BB/W rats and a fourth group of non-diabetic rats received daily vehicle treatment (50 mM Hepes buffered saline).
After six (6) months of NAALADase inhibitor or vehicle treatment, the rats were sacrificed and their eyes were removed. From each rat, one eye was processed for elastase digest while the other eye was processed for transmission electron microscopy (TEM) and basement membrane (BM) thickness.
Retinal digests were prepared using elastase on retinas as described in Layer, N., Invest Ophthalmol Vis Sci (1993) 34:2097. Eyes were removed from recently killed BB/W rats (n=25) and age-matched […] controls (n=10). The retinas (n=35) were fixed at room temperature by immersing the whole eye (slit at limbus) in 4% (w/v) paraformaldehyde in 50 mmol/L Na—K phosphate buffer with 8% sucrose. The fixed retinas were rinsed in deionized water and were incubated for 3 minutes in a 37° C. agitating water bath in 40 units/mL elastase in Na—K phosphate buffer with 150 mmol/L NaCl and 5 mmol/L ethylenediamine tetraacetic acid (EDTA), pH 6.5. The tissues were washed overnight in 100 mmol/L Tris-HCL (pH 8.5) and then transferred to deionized water for removal of the loosened vitreous and digested neural elements by gentle agitation using the sides of closed forceps and the sides and ends of very fine brushes. After all loose tissues were removed, the retinas were incubated once more in fresh enzyme for 3 minutes and then subjected to a second overnight wash at room temperature in Tns-HCl buffer. On the third day, the retinas were again transferred to deionized water for additional removal of digested neural elements. The vascular network that was completely free of nonvascular elements was mounted flat by flotation in Ca^2+ and Mg^2+ free Dulbecco's PBS on siliconized slides (#S1308, Oncor, Gaithersburg, Md.). After air drying in a dust free environment, the mounts of the retinal microvasculature were stained using periodic acid Schiff reaction and hematoxylin counterstaining, as described in Luna, L., ed. Manual of Histologic Staining Methods of the Armed Forces Institute of Pathology (1968) McGraw-Hill, New York, N.Y. The preparations were then examined by light microscopy and photographed.
The stained and intact retinal whole mounts were coded and subsequent counting was done masked, as described in Cuthbertson, R., Invest Ophthalmol Vis Sci. (1986) 27:1659–1664).
Ten fields at ×100 magnification were counted for endothelial and pericyte cells using previously described morphologic criteria (see Kuwabara, T., Arch Ophthalmol. (1960) 64:904–911). In every sample, at least 200 cells were counted from the mid zone of the retina. Mean values for endothelial cell/pericyte (E/P) ratios were initially calculated in 3 retinas from each of the four (4) groups of rats.
Each eye was fixed in 4% glutaraldehyde and dissected free of sclera and choroids, then trimmed and postfixed in 1% osmium tetroxide. After dehydration and embedding, thin sections were stained with uranyl acetate and lead citrate. Initially, BM thickness of retinal capillaries from 3 non-diabetic rats receiving vehicle, 3 diabetic animals receiving 10 mg/kg 2-(3-sulfanylpropyl)-pentanedioic acid, and 3 diabetic rats receiving 30 mg/kg 2-(3-sulfanylpropyl)-pentanedioic acid were compared with 3 diabetic rats receiving a vehicle. At least 10 capillaries per eye from the inner nuclear and plexiform layers were photographed at a magnification of 10,000×. Exact magnification was determined for each set of negatives with a 28,800 line/inch calibration grid. Negatives were enlarged 3×. […]

[2] = tested on: Brown Norway rats with unilateral elevation of intraocular pressure; experiment: Experimental rat glaucoma (IOP elevation), optic nerve fiber counting; format: in vivo; settings: 10 mg/kg i.p. daily
Procedure: All experiments complied with the Association for Research in Vision and Ophthalmology Statement for the Use of Animals in Ophthalmic and Vision Research. 82 male Brown Norway rats (Rattus norvegicus), each weighing approximately 250 gm, were treated using procedures approved by the Animal Care Committee of the Johns Hopkins University School of Medicine. The rats were housed with a 12 hour light/12 hour dark cycle and fed ad libitum.
EXPERIMENTAL GLAUCOMA: Unilateral elevation of intraocular pressure (“IOP”) was produced in 56 rats by microinjection of hypertonic saline into episcleral veins, following procedures described in Morrison, J. et al., IOVS (March 1998) 39:526–531. Beginning on the day of IOP elevation, the rats were treated daily with intraperitoneal injections of either a vehicle (23 rats with 50 mM HEPES-buffered saline) or a NAALADase inhibitor (11 rats with 10 mg/kg of Compound A and 22 rats with 10 mg/kg of Compound B). 11 saline treated rats, 11 Compound A treated rats and 11 Compound B treated rats were sacrificed at 8 weeks, and the remaining rats at 12 weeks, after initial IOP elevation.
OPTIC NERVE COUNTING: The rats were sacrificed by exsanguination under deep pentobarbital anesthesia. They were perfused through the heart with 2% paraformaldehyde/2% glutaraldehyde in 0.1 M phosphate buffer, pH 7.2, and the eyes with attached optic nerves were removed. A cross-section of the optic nerve from both experimental (glaucoma or transection) and control eyes was removed 1.5 mm posterior to the globe, 1 mm in thickness, and post-fixed in 2% osmium tetroxide in buffer. These were processed into epoxy resin, sectioned at 1 micron and stained with toluidine blue.
The area of the optic nerve cross-section was measured by outlining its outer border at 10× magnification on an image analysis system (Universal Imaging Corp., Westchester, Pa.) with Synsys digital camera and Metamorph software. Three area measurements were taken and the mean value was determined. To measure the density and fiber diameter distributions, images were captured with a 100× phase contrast objective from 10 different areas of each nerve. These were edited to eliminate non-neural objects and the size of each axon internal to the myelin sheath (its minimum diameter) and the density of axons/square mm were calculated for each image and nerve. The mean density was multiplied by total nerve area to yield fiber number for each nerve. The total fiber number in glaucoma or transection nerves was compared to the normal, fellow eye of each rat to yield a percent loss value. The number of axons counted among the 10 images was an approximately 20% sample of the 80–90,000 axons in normal rat nerves. The person measuring axon number was masked to the protocol conducted on the nerves.

[3] = 10 mg/kg daily for 6 months, 10 mg/kg
[4] = 10 mg/kg daily for 6 months, listed as NAALADASE INHIBITOR, 10 mg/kg
[5] = 30 mg/kg daily for 6 months, 30 mg/kg
[6] = 30 mg/kg daily for 6 months, listed as NAAALADASE INHIBITOR, 30 mg/kg
[7] = high dose (30 mg/kg), six months
[8] = low dose (10 mg/kg), six months

## O=C(O)CCC(CCCS)C(=O)O (stereo not shown) [Compound B, 2-(3-sulfanylpropyl)-pentanedioic acid]
[1]; [3]
  BM THICKNESS ± SD (n = 3): 82.3±4.07 nm
  E/P RATIO (n = 8–10): 2.4±0.5
[1]; [4]
  BM THICKNESS ± SD (n = 3): 82.3 ± 4.07 nm
  E/P RATIO (n = 8–10): 2.4 ± 0.5
[1]; [5]
  BM THICKNESS ± SD (n = 3): 71.7±4.07 nm
  E/P RATIO (n = 8–10): 1.9±0.4
[1]; [6]
  BM THICKNESS ± SD (n = 3): 71.7 ± 4.07 nm
  E/P RATIO (n = 8–10): 1.9 ± 0.4
[1]; [7]
  reduction in BM thickness versus diabetic vehicle: 29.0%
  reduction of E/P ratios versus diabetic vehicle: 37%
[1]; [8]
  decrease in BM thickness versus diabetic vehicle: 18.5%
  reduction of E/P ratios versus diabetic vehicle: 20%
[2]; 8 week group
  FIBER NUMBER ± SEM: 80785 ± 2121
[2]; 8 week group, positive = fewer fibers in glaucoma eye
  PERCENT DIFFERENCE ± SEM in fiber number between glaucoma and normal eye: −0.82 ± 2.97%
[2]; 12 week group
  FIBER NUMBER: 90504 ± 1718
[2]; 12 week group, positive = fewer fibers in glaucoma eye
  PERCENT DIFFERENCE in fiber number between glaucoma and normal eye: −3.21 ± 2.86%
